In patent US8859573B2, “Pyrimidinone and pyridinone compounds for use in the treatment of diseases or conditions mediated by Lp-PLA2” (Glaxo Group Limited, priority 2010, dated 2014):
Counter-ions that a name gives are not always drawn.

Target: T1, Lp-PLA2 from plasma (Homo sapiens, UniProt Q13093)
T1 construct: from tissue; host or cells: pooled human plasma
T1 sequence (Q13093 22-441): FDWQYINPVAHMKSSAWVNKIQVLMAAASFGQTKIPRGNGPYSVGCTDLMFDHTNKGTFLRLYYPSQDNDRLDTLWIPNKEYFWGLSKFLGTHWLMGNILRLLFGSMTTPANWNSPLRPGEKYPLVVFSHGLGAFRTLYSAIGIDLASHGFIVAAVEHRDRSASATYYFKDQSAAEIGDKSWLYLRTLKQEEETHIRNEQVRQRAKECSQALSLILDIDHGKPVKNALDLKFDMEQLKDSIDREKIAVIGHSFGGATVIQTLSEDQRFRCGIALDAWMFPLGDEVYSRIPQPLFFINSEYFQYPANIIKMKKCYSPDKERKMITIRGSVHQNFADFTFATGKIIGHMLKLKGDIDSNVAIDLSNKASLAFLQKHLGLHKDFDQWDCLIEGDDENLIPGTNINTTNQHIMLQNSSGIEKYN
Experiment: Lp-PLA2 human plasma assay (Thio-PAF assay)
Assay type: biochemical
Conditions: pooled human plasma; read-out: pIC50 values in the thio-PAF assay (converted)
Excerpt: (3) Lipoprotein-Associated Phospholipase A2 (Lp-PLA2) Human Plasma Assay (Also Referred to as “Thio-PAF Assay”)
The human plasma assay utilizes a thioester analog of PAF (phosphatidylcholine), where hydrolysis yields to the formation of a phospholipid containing a free thiol group. The amount of thiol is quantitated continuously by reacting with CPM (7-diethylamino-3-(4′-maleimidylphenyl)-4-methylcoumarin), a maleimide which increases in fluoresence after Michael addition of thiols. This assay may detect the activity of Lp-PLA2 from plasma, as determined by specific inhibition by Lp-PLA2 inhibitors.
The thio-PAF assay was run as a quenched 15 μL assay. Compounds source plate was prepared by making 1:3 (by volume) serial dilution of the compounds into pure DMSO on 384-well microplate. 0.01 μL of compounds on compound source plate were transferred to 384 well Greiner 784076 (black) low-volume plates by ECHO liquid dispenser. 8 μL pooled human plasma, which was previously aliquoted and frozen, was added. Plates were centrifuged for 10 sec at 500 rpm. After 30 minutes preincubation, 2 μL of substrate (2.5 mM thio-PAF, 3.2 mM NEM (N-ethylmaleimide) [made fresh daily in DMSO], and 32 μM CPM [from a DMSO stock] in assay buffer of 50 mM HEPES, pH7.4, 150 mM NaCl, 1 mM CHAPS was added to 384 well Greiner 784076 (black) low-volume plates by BRAVO liquid handling station. Plates were centrifuged for 10 sec at 500 rpm. Plate was covered to protect from light and incubated for 2 min at room temperature. Reaction was quenched with 5 μL of 5% aqueous trifluoroacetic acid (TFA). Plates were covered to protect from light and incubated for 40 min at room temperature. Plates were read at ex: 380/em: 485 using-Envision microplate reader. PIC50 data, curve and QC analysis was conducted by using XLFit module in Excel.

| Compound | IC50 |
| --- | --- |
| N#Cc1cc(COc2cc[nH]c(=O)n2)ccc1Oc1ccc(Cl)c(C(F)(F)F)c1 [Example 3, 2-(4-Chloro-3-(trifluoromethyl)phenoxy)-5-(((2-oxo-2,3-dihydropyrimidin-4-yl)oxy)methyl)benzonitrile] | > 10 µM |
| N#Cc1cc(CCOc2ccn(Cc3cccnc3)c(=O)n2)ccc1Oc1ccc(Cl)c(C(F)(F)F)c1 [Example 7, 2-{[4-Chloro-3-(trifluoromethyl)phenyl]oxy}-5-(2-{[2-oxo-1-(3-pyridinylmethyl)-1,2-dihydro-4-pyrimidinyl]oxy}ethyl)benzonitrile trifluoroacetate] | ≤ 0.1 µM |
| Cn1cc(Cn2ccc(OCc3ccc(Oc4ccc(Cl)c(C(F)(F)F)c4)cn3)nc2=O)cn1 [Example 15, 4-{[(5-{[4-Chloro-3-(trifluoromethyl)phenyl]oxy}-2-pyridinyl)methyl]oxy}-1-[(1-methyl-1H-pyrazol-4-yl)methyl]-2(1H)-pyrimidinone] | ≤ 0.1 µM |
| Cn1cc(Cn2ccc(OCCc3ccc(Oc4ccc(Cl)c(C(F)(F)F)c4)cn3)nc2=O)cn1 [Example 16, 4-{[2-(5-{[4-Chloro-3-(trifluoromethyl)phenyl]oxy}-2-pyridinyl)ethyl]oxy}-1-[(1-methyl-1H-pyrazol-4-yl)methyl]-2(1H)-pyrimidinone] | ≤ 0.1 µM |
| Cn1cc(Cn2ccc(CCc3ccc(Oc4cccc(C(F)(F)F)c4)c(C#N)c3)nc2=O)cn1 [Example 20, 5-(2-{1-[(1-Methyl-1H-pyrazol-4-yl)methyl]-2-oxo-1,2-dihydro-4-pyrimidinyl}ethyl)-2-{[3-(trifluoromethyl)phenyl]oxy}benzonitrile] | ≤ 1 µM |
| Cn1cc(Cn2ccc(OCCc3ccc(Oc4ccc(Cl)c(C(F)(F)F)c4)cc3)cc2=O)cn1 [Example 24, 4-{[2-(4-{[4-Chloro-3-(trifluoromethyl)phenyl]oxy}phenyl)ethyl]oxy}-1-[(1-methyl-1H-pyrazol-4-yl)methyl]-2(1H)-pyridinone] | ≤ 1 µM |
| COc1ncc(Cn2cc(F)c(OCCc3cnc(Oc4ccc(Cl)c(C(F)(F)F)c4)c(F)c3)nc2=O)cn1 [Example 34, 4-(2-(6-(4-chloro-3-(trifluoromethyl)phenoxy)-5-fluoropyridin-3-yl)ethoxy)-5-fluoro-1-((2-methoxypyrimidin-5-yl)methyl)pyrimidin-2(1H)-one] | ≤ 0.1 µM |
| COc1ncc(Cn2cc(F)c(OCCc3ccc(Oc4ccc(Cl)c(C(F)(F)F)c4)cc3)nc2=O)cn1 [Example 36, 4-(4-(4-chloro-3-(trifluoromethyl)phenoxy)phenethoxy)-5-fluoro-1-((2-methoxypyrimidin-5-yl)methyl)pyrimidin-2(1H)-one] | ≤ 0.1 µM |
| COc1ncc(Cn2cc(Cl)c(OCCc3cnc(Oc4ccc(F)c(C(F)(F)F)c4)c(F)c3)nc2=O)cn1 [Example 37, 5-chloro-4-(2-(5-fluoro-6-(4-fluoro-3-(trifluoromethyl)phenoxy)pyridin-3-yl)ethoxy)-1-((2-methoxypyrimidin-5-yl)methyl)pyrimidin-2(1H)-one] | ≤ 0.1 µM |
| Cn1cc(Cn2cc(Cl)c(OCCc3cnc(Oc4ccc(F)c(C(F)(F)F)c4)c(F)c3)nc2=O)cn1 [Example 38, 5-chloro-4-(2-(5-fluoro-6-(4-fluoro-3-(trifluoromethyl)phenoxy)pyridin-3-yl)ethoxy)-1-((1-methyl-1H-pyrazol-4-yl)methyl)pyrimidin-2(1H)-one] | ≤ 0.1 µM |
| Cn1cc(Cn2cc(F)c(OCCc3ccc(Oc4ccc(F)c(C(F)(F)F)c4)nc3)nc2=O)cn1 [Example 39, 5-fluoro-4-(2-(6-(4-fluoro-3-(trifluoromethyl)phenoxy)pyridin-3-yl)ethoxy)-1-((1-methyl-1H-pyrazol-4-yl)methyl)pyrimidin-2(1H)-one] | ≤ 0.1 µM |
| Cn1cc(Cn2cc(F)c(OCCc3ccc(Oc4ccc(Cl)c(C(F)(F)F)c4)nc3)nc2=O)cn1 [Example 40, 4-(2-(6-(4-chloro-3-(trifluoromethyl)phenoxy)pyridin-3-yl)ethoxy)-5-fluoro-1-((1-methyl-1H-pyrazol-4-yl)methyl)pyrimidin-2(1H)-one] | ≤ 0.1 µM |
| Cn1cc(Cn2cc(F)c(OCCc3cnc(Oc4ccc(F)c(C(F)(F)F)c4)c(F)c3)nc2=O)cn1 [Example 42, 5-fluoro-4-(2-(5-fluoro-6-(4-fluoro-3-(trifluoromethyl)phenoxy)pyridin-3-yl)ethoxy)-1-((1-methyl-1H-pyrazol-4-yl)methyl)pyrimidin-2(1H)-one] | ≤ 0.1 µM |
| COc1ncc(Cn2cc(F)c(OCCc3cnc(Oc4ccc(F)c(C(F)(F)F)c4)c(F)c3)nc2=O)cn1 [Example 43, 5-fluoro-4-(2-(5-fluoro-6-(4-fluoro-3-(trifluoromethyl)phenoxy)pyridin-3-yl)ethoxy)-1-((2-methoxypyrimidin-5-yl)methyl)pyrimidin-2(1H)-one] | ≤ 0.1 µM |
| Cn1cc(Cn2cc(Cl)c(OCCc3ccc(Cc4ccc(Cl)c(C(F)(F)F)c4)cc3)nc2=O)cn1 [Example 44, 5-chloro-4-(4-(4-chloro-3-(trifluoromethyl)benzyl)phenethoxy)-1-((1-methyl-1H-pyrazol-4-yl)methyl)pyrimidin-2(1H)-one] | ≤ 0.1 µM |
| COc1ncc(Cn2cc(Cl)c(OCc3ccc(Oc4ccc(F)c(F)c4)c(F)c3)nc2=O)cn1 [Example 54, 5-chloro-4-((4-(3,4-difluorophenoxy)-3-fluorobenzyl)oxy)-1-((2-methoxypyrimidin-5-yl)methyl)pyrimidin-2(1H)-one] | ≤ 0.1 µM |

More lines, now with the values ahead:

| IC50 | Compound |
| --- | --- |
| ≤ 0.1 µM | N#Cc1cc(COc2ccn(Cc3ccncc3)c(=O)n2)ccc1Oc1ccc(Cl)c(C(F)(F)F)c1 [Example 2, 2-{[4-Chloro-3-(trifluoromethyl)phenyl]oxy}-5-({[2-oxo-1-(4-pyridinylmethyl)-1,2-dihydro-4-pyrimidinyl]oxy}methyl)benzonitrile trifluoroacetate] |
| ≤ 0.1 µM | Cn1cc(Cn2ccc(OCc3ccc(Oc4ccc(Cl)c(C(F)(F)F)c4)c(C#N)c3)nc2=O)cn1 [Example 6, 2-{[4-Chloro-3-(trifluoromethyl)phenyl]oxy}-5-[({1-[(1-methyl-1H-pyrazol-4-yl)methyl]-2-oxo-1,2-dihydro-4-pyrimidinyl}oxy)methyl]benzonitrile] |
| ≤ 1 µM | O=c1nc(OCCc2ccc(Oc3ccc(Cl)c(C(F)(F)F)c3)cc2)ccn1CCc1cccnc1 [Example 13, 4-{[2-(4-{[4-Chloro-3-(trifluoromethyl)phenyl]oxy}phenyl)ethyl]oxy}-1-[2-(3-pyridinyl)ethyl]-2 (1H)-pyrimidinone trifluoroacetate] |
| ≤ 0.1 µM | O=c1nc(OCc2ccc(Oc3ccc(Cl)c(C(F)(F)F)c3)cn2)ccn1Cc1cccnc1 [Example 14, 4{[(5-{[4-Chloro-3-(trifluoromethyl)phenyl]oxy}-2-pyridinyl)methyl]oxy}-1-(3-pyridinylmethyl)-2(1H)-pyrimidinone] |
| ≤ 0.1 µM | N#Cc1cc(CNc2ccn(Cc3cccnc3)c(=O)n2)ccc1Oc1ccc(Cl)c(C(F)(F)F)c1 [Example 19, 2-{[4-Chloro-3-(trifluoromethyl)phenyl]oxy}-5-({[2-oxo-1-(3-pyridinylmethyl)-1,2-dihydro-4-pyrimidinyl]amino}methyl)benzonitrile] |
| ≤ 1 µM | Cn1cc(Cn2ccc(OCc3ccc(Oc4ccc(Cl)c(C(F)(F)F)c4)c(C#N)c3)cc2=O)cn1 [Example 22, 2-{[4-Chloro-3-(trifluoromethyl)phenyl]oxy}-5-[({1-[(1-methyl-1H-pyrazol-4-yl)methyl]-2-oxo-1,2-dihydro-4-pyridinyl}oxy)methyl]benzonitrile] |
| ≤ 0.1 µM | Cn1cc(Cn2cc(F)c(OCCc3ccc(Oc4ccc(Cl)c(C(F)(F)F)c4)cc3)nc2=O)cn1 [Example 29, 4-{[2-(4-{[4-Chloro-3-(trifluoromethyl)phenyl]oxy}phenyl)ethyl]oxy}-5-fluoro-1-[(1-methyl-1H-pyrazol-4-yl)methyl]-2(1H)-pyrimidinone] |
| ≤ 0.1 µM | Cn1cc(Cn2cc(Cl)c(OCCc3ccc(Oc4ccc(Cl)c(C(F)(F)F)c4)cc3)nc2=O)cn1 [Example 30, 5-chloro-4-{[2-(4-{[4-Chloro-3-(trifluoromethyl)phenyl]oxy}phenyl)ethyl]oxy}-1-[(1-methyl-1H-pyrazol-4-yl)methyl]-2(1H)-pyrimidinone] |
| ≤ 1 µM | CCn1cc(F)c(OCCc2ccc(Oc3ccc(Cl)c(C(F)(F)F)c3)nc2)nc1=O [Example 52, 4-(2-(6-(4-chloro-3-(trifluoromethyl)phenoxy)pyridin-3-yl)ethoxy)-1-ethyl-5-fluoropyrimidin-2(1H)-one] |
